For the assay, the target named is T1, β2-chimaerin (Homo sapiens, UniProt P52757).
T1 sequence (P52757 1-468): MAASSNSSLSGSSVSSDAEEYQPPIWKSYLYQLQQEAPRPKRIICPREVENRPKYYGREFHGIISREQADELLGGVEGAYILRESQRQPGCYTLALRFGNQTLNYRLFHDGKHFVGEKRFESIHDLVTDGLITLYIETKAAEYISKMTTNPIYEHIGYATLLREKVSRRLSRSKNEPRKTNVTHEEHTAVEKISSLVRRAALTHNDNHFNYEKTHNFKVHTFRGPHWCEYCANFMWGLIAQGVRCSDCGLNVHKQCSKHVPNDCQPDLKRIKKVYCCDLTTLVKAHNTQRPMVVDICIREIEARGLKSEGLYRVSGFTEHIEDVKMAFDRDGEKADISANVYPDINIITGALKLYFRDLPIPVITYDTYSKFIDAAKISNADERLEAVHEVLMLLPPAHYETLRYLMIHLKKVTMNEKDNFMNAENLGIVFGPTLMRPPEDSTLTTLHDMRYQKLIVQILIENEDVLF
The format is cell-based.

Molecules are shown by their SMILES.

One may read the EC50 as the concentration at which the effect is half-maximal. Read a low EC50 as a more potent agent. `CCCCCCCCCCCCCC(=O)O[C@@H]1[C@@H](C)[C@@]2(O)[C@@H](C=C(CO)C[C@]3(O)C(=O)C(C)=C[C@@H]23)[C@@H]2C(C)(C)[C@]12OC(C)=O` [Phorbol 12-myristate 13-acetate] showed an EC50 of 1202 ± 1 nM.

Source of the values: paper PMC3969763 (Molecular biology reports, 2014).
